Measured values reported in ChEMBL document CHEMBL5137118, “Zamamiphidins B and C, Manzamine-Related Alkaloids from an Amphimedon sp. Marine Sponge Collected in Okinawa” (J Nat Prod, 2022).

Assays:
KB = test: Cytotoxicity against human KB cells assessed as inhibition of cell growth; type: functional, cell-based
L1210 = test: Cytotoxicity against mouse L1210 cells assessed as inhibition of cell growth; type: functional, cell-based
Acetylcholinesterase = Acetylcholinesterase (Electrophorus electricus, UniProt O42275); test: Inhibition of electric eel AChE using acetylthiocholine iodide as substrate preincubated for 30 mins followed by substrate addition and measured after 5 mins by DTNB-reagent based Ellman's method
Acetylcholinesterase, sequence (O42275 whole entry): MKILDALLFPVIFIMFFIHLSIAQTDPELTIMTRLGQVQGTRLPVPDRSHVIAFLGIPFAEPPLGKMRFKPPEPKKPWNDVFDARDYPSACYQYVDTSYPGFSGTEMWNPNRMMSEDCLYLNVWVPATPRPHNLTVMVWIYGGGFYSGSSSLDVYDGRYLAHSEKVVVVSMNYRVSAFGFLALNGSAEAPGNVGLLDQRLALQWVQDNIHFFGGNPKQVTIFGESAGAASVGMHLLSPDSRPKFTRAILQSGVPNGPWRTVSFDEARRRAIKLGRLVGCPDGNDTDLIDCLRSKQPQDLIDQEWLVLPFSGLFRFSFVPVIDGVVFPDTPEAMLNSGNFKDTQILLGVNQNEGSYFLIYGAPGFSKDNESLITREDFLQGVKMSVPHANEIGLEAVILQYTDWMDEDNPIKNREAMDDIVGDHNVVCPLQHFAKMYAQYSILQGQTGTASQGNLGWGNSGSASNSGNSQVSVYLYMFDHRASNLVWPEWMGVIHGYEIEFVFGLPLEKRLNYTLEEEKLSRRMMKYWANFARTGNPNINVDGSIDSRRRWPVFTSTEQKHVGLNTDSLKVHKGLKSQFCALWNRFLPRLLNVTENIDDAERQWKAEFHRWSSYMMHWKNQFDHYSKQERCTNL

| Structure (SMILES) | IC50 (KB) [µg/mL] | IC50 (L1210) [µg/mL] | IC50 (Acetylcholinesterase) [µM] |
| --- | --- | --- | --- |
| O[C@H]1CCCC[N+]23C[C@@H]4C=C5CC/C=C\CCCCN6CC[C@@H]4[C@](CC[C@H]12)(C6)[C@H]53 | > 10 | > 10 | 350 |
| O[C@@H]1CCCC[N+]23C[C@@H]4C=C5CC/C=C\CCCCN6CC[C@@H]4[C@](CC[C@H]12)(C6)[C@H]53 | > 10 | > 10 | 470 |
